Laboratory results: patent US8318731B2, “Pyrrolopyrimidines” (Janssen Pharmaceutica NV, priority 2007, dated 2012)

How the values were obtained:
U87-MG = assay: Cellular proliferation assay (Alamar blue), U87-MG; type: cell-based; conditions: Homo sapiens, U-87 MG; U87-MG cells; 10% FCS; 72 h with compound; Alamar blue 6 h; read-out: pIC50 U87MG (converted)
Outline: (§1)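 Read-out: resazurin-based Alamar blue fluorescence at 544/590 nm, with dye left 24 h on PC3 and A2780, 6 h on U87-MG and 4 h on HCT-116. Beforehand, cells grew 24 h compound-free, then 72 h with compound, in 10% FCS at 37° C./5% CO2. Values are expressed against untreated controls.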

HCT-116 = assay: Cellular proliferation assay (Alamar blue), HCT-116; type: cell-based; conditions: Homo sapiens; HCT-116 cells; 10% FCS; 72 h with compound; Alamar blue 4 h; read-out: pIC50 HCT-116 (converted)
Outline: as §1

PLK4 (h) = molecular target: T1, PLK4 (h) (Homo sapiens, UniProt O00444); assay: PLK-4 human kinase scintillation proximity assay (SPA); type: biochemical; conditions: 1 μM ATP, 60 minutes at r.t., read-out: PLK4 pIC50 (converted)
T1 sequence (O00444 1-970): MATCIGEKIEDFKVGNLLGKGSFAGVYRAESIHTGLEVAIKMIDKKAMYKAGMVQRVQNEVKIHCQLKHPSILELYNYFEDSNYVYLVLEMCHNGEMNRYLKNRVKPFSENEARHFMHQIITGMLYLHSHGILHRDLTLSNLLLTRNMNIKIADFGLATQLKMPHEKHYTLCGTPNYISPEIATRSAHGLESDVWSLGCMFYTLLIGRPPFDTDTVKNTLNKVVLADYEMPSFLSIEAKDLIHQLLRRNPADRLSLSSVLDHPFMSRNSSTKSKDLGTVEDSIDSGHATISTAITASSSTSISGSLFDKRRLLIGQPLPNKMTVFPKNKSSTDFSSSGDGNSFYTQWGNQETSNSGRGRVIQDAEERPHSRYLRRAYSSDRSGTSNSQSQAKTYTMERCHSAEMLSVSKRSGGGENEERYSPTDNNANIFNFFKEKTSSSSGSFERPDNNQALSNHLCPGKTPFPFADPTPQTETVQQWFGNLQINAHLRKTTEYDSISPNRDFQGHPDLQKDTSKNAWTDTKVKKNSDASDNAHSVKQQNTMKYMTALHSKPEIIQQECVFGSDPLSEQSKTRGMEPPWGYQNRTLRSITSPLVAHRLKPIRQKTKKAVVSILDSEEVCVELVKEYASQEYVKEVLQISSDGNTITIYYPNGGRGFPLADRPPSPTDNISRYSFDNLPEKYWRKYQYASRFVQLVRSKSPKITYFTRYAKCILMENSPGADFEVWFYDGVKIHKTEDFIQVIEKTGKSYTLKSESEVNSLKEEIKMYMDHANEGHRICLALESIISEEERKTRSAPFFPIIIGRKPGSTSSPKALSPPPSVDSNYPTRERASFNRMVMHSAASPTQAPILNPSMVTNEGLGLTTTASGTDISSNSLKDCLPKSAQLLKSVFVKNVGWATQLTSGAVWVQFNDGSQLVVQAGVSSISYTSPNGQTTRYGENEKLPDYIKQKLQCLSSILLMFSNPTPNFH
Outline: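 Scintillation proximity read-out: EDTA-stopped reactions were captured on streptavidin SPA beads after PLK4 (19 μg/ml) had phosphorylated 10 μM biotin-peptide for 60 min at room temperature, using 1 μM ATP spiked with 2 nM 33P-ATP in pH 8.0 HEPES buffer.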

H1299 = assay: Cellular proliferation assay (Alamar blue), H1299; type: cell-based; conditions: Homo sapiens, NCI-H1299, H1299 cells; 10% FCS; 72 h with compound; Alamar blue 4 h; read-out: pIC50 H1299 (converted)
Outline: (§2)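 Viable cell number is determined by Alamar blue conversion after cells are treated with compound for 72 hours, following 24 hours of growth without compound in 10% FCS. The effect is calculated against control cells.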

PC3 = assay: Cellular proliferation assay (Alamar blue), PC3; type: cell-based; conditions: Homo sapiens, PC-3, PC-3 cells; 10% FCS; 72 h with compound; Alamar blue 24 h; read-out: pIC50 PC-3 (converted)
Outline: as §1

A2780 = assay: Cellular proliferation assay (Alamar blue), A2780; type: cell-based; conditions: Homo sapiens, A2780, A2780 cells; 10% FCS; 72 h with compound; Alamar blue 24 h; read-out: pIC50 A2780 (converted)
Outline: as §1

MDA-MB-231 = assay: Cellular proliferation assay (Alamar blue), MDA-MB-231; type: cell-based; conditions: Homo sapiens, MDA-MB-231, MDA-MB-231 cells; 10% FCS; 72 h with compound; Alamar blue 24 h; read-out: pIC50 MDA/MB231 (converted)
Outline: as §2

Question: With `CN1CCCN(C)C(=O)COc2cc(ccc2OCCNc2ccc(Cl)cc2)Nc2ncnc3[nH]cc(c23)C1` [Compound 79] as the molecule, how does the IC50 (U87-MG) read?
Answer: Its IC50 is 3160 nM.

Question: And the IC50 (HCT-116)?
Answer: Its IC50 is 251 nM.

Question: And the melting point?
Answer: Its melting point is 269.3 °C.

Question: And the IC50 (PLK4 (h))?
Answer: Its IC50 is 100 nM.

Question: What about the IC50 (H1299) of the same molecule?
Answer: Its IC50 is 794 nM.

Question: And the IC50 (PC3)?
Answer: The IC50 was 3980 nM.

Question: And the IC50 (A2780)?
Answer: The IC50 was 200 nM.

Question: And the IC50 (MDA-MB-231)?
Answer: The IC50 was 5010 nM.

Question: What does the source list for `CCOCCOc1ccc2cc1OCC(=O)N(C)CCCN(C)Cc1c[nH]c3ncnc(c13)N2` [Compound 70]?
Answer: IC50 (U87-MG): 1580 nM; IC50 (HCT-116): 100 nM; melting point: 237.8 °C; IC50 (PLK4 (h)): 25.1 nM; IC50 (H1299): 501 nM; IC50 (PC3): 3980 nM; IC50 (A2780): 79.4 nM; IC50 (MDA-MB-231): 2510 nM

Question: For `COc1ccc(OCCCOc2ccc3cc2OCC(=O)N(C)CCCN(C)Cc2c[nH]c4ncnc(c24)N3)cc1` [Compound 78], which IC50 (U87-MG) is on record?
Answer: The IC50 was 3980 nM.

Question: And the IC50 (HCT-116)?
Answer: The IC50 was 1260 nM.

Question: What about the melting point of the same molecule?
Answer: Its melting point is 222.2 °C.

Question: What about the IC50 (PLK4 (h)) of the same molecule?
Answer: Its IC50 is 50.1 nM.

Question: And the IC50 (H1299)?
Answer: Its IC50 is 2510 nM.

Question: And the IC50 (PC3)?
Answer: The IC50 was 5010 nM.

Question: What about the IC50 (A2780) of the same molecule?
Answer: The IC50 was 1260 nM.

Question: What about the IC50 (MDA-MB-231) of the same molecule?
Answer: Its IC50 is 6310 nM.

Question: With `CCOCCOc1ccc2cc1OCC(=O)N(C)CCCNCc1c[nH]c3ncnc(c13)N2` [Compound 75] as the molecule, how does the IC50 (U87-MG) read?
Answer: Its IC50 is > 10000 nM.

Question: And the IC50 (HCT-116)?
Answer: Its IC50 is 794 nM.

Question: And the melting point?
Answer: Its melting point is 237.4 °C.

Question: And the IC50 (PLK4 (h))?
Answer: Its IC50 is 39.8 nM.

Question: What about the IC50 (H1299) of the same molecule?
Answer: Its IC50 is > 10000 nM.

Question: What about the IC50 (PC3) of the same molecule?
Answer: Its IC50 is > 10000 nM.

Question: What about the IC50 (A2780) of the same molecule?
Answer: Its IC50 is 631 nM.

Question: What about the IC50 (MDA-MB-231) of the same molecule?
Answer: Its IC50 is > 10000 nM.

Question: For `COc1ccc2cc1OCC(=O)N(C)CCN(C)Cc1c[nH]c3ncnc(c13)N2` [Compound 10], which IC50 (U87-MG) is on record?
Answer: The IC50 was > 10000 nM.

Question: What about the IC50 (HCT-116) of the same molecule?
Answer: Its IC50 is > 10000 nM.

Question: What about the melting point of the same molecule?
Answer: Its melting point is 249.3 °C.

Question: What about the IC50 (PLK4 (h)) of the same molecule?
Answer: Its IC50 is 126 nM.

Question: What about the IC50 (H1299) of the same molecule?
Answer: Its IC50 is > 10000 nM.

Question: What about the IC50 (PC3) of the same molecule?
Answer: Its IC50 is > 10000 nM.

Question: And the IC50 (A2780)?
Answer: The IC50 was > 10000 nM.

Question: What about the IC50 (MDA-MB-231) of the same molecule?
Answer: The IC50 was > 10000 nM.

Question: For `CCOCCOc1ccc2cc1OCC(=O)N(C)CCCN(C)Cc1cn(C)c3ncnc(c13)N2` [Compound 81], which IC50 (U87-MG) is on record?
Answer: The IC50 was 501 nM.

Question: And the IC50 (HCT-116)?
Answer: The IC50 was 251 nM.

Question: What about the melting point of the same molecule?
Answer: The melting point was 221 °C.

Question: And the IC50 (PLK4 (h))?
Answer: Its IC50 is 79.4 nM.

Question: What about the IC50 (H1299) of the same molecule?
Answer: The IC50 was 631 nM.

Question: What about the IC50 (PC3) of the same molecule?
Answer: Its IC50 is > 10000 nM.

Question: What about the IC50 (A2780) of the same molecule?
Answer: Its IC50 is 200 nM.

Question: And the IC50 (MDA-MB-231)?
Answer: The IC50 was 2000 nM.

Question: With `COc1ccc2cc1OCC(=O)N(C)CCCN(C)Cc1c[nH]c3ncnc(c13)N2` [Compound 7] as the molecule, how does the IC50 (U87-MG) read?
Answer: Its IC50 is 1260 nM.

Question: What about the IC50 (HCT-116) of the same molecule?
Answer: Its IC50 is 501 nM.

Question: And the melting point?
Answer: The melting point was 267.9 °C.

Question: And the IC50 (PLK4 (h))?
Answer: Its IC50 is 39.8 nM.

Question: What about the IC50 (H1299) of the same molecule?
Answer: The IC50 was 1000 nM.

Question: And the IC50 (PC3)?
Answer: The IC50 was 2000 nM.

Question: What about the IC50 (A2780) of the same molecule?
Answer: The IC50 was 631 nM.

Question: What about the IC50 (MDA-MB-231) of the same molecule?
Answer: Its IC50 is 1580 nM.
